Data published in US20040186273A1 (V.I. Technologies, Inc., priority 2000, published 2004).

What was measured:
[1] = molecular target: PrPc from normal brain homogenate (Mesocricetus auratus, UniProt P04273)
[2] = molecular target: prion from scrapie infected hamster brain (PrPsc) (Mesocricetus auratus, UniProt P04273)
[3] = molecular target: prion from infected hamster brain spiked into plasma (Mesocricetus auratus, UniProt P04273)
Chain of prion from infected hamster brain spiked into plasma (P04273 23-231 limits assumed): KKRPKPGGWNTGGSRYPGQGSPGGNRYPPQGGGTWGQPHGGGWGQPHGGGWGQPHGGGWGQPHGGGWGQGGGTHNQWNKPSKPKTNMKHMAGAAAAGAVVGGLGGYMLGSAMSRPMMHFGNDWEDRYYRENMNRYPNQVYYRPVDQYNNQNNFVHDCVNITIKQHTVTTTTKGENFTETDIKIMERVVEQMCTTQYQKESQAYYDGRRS

Chain of PrPc from normal brain homogenate (P04273 23-231 limits assumed): as above
Chain of prion from scrapie infected hamster brain (PrPsc) (P04273 23-231 limits assumed): as above

Substance	PrPc bound to resin (chemiluminescence signal, +3F4 vs -3F4) [1]	binding of prion to resin (prion signal in flow through) [2]	further results
IFFWIK [Peptide 112]	strongest binders		
YVFNWY [Peptide 87]		bound all prion	
RWIISL [Peptide 113]	strongest binders		
acetyl (dF)LLHPI [Peptide 75, reference compound]			binding of prion to resin (prion signal in flow through) [3]: did not bind prion strongly enough to retain all detectable protein
HHHPQT [Peptide 55]		let prion flow through	prion binding, dependence on copper [2]: appears to bind prion only in the absence of copper
VFEYIK [Peptide 115]	strongest binders		
acetylated (dR)YHVYF [Peptide 83, reference compound]			binding of prion to resin (prion signal in flow through) [3]: bound all prion
acetyl (dF)LLHPI [Peptide 76]		failed to bind all prion	
WLVWIA [Peptide 116]	strongest binders		
LLIWIP [Peptide 84]	not stable enough to resist the washing protocol		
WLYWIP [Peptide 85]	not stable enough to resist the washing protocol		
GFFFWW [Peptide 89]		bound all prion	
IQIWIF [Peptide 110]		bound to the column	binding of prion to resin (prion signal in flow through) [3]: bound all prion
RYHVYF [Peptide 71]		bound all prion	
LRVIIS [Peptide 96]	much larger signal than the controls		
